For one experiment, the system named is LXFA 677. As to conditions: 4 mg/kg i.v.; Boshuizen et al, Nature Med 2018; cited from earlier work.
Experiment [1] has as its system BLM human melanoma cell line-derived xenograft. Kind of experiment: BLM melanoma xenograft model with MART-1-specific human T cells. Format: in vivo, mice. The settings on record: ADC single dose 4 mg/kg i.v. with control or MART-1 T cells; anti-PD1 5 mg/kg weekly i.p. with MART-1 T cells and control ADC. Here is the method:
The anti-tumor activity of IgG1-AXL-107-vcMMAE in combination with anti-PD1 (pembrolizumab) was evaluated in the BLM human melanoma cell line-derived xenograft model in mice, which systemically received human T-cells that were engineered to express a melanoma-specific T-cell receptor (TCR) against MART-1. Before inoculation of mice with BLM cells, the BLM cells were transduced with the antigen (MART-1) as well as the correct HLA haplotype (HLA-A2) in order for the MART-1-specific T cells to recognize the tumor cells.
Melanoma cell line BLM was cultured in DMEM (Gibco), with fetal bovine serum (Sigma), 100 U/mL penicillin (Gibco) and 0.1 mg/mL streptomycin (Gibco) under standard conditions, and was regularly confirmed to be mycoplasma-free by PCR. […]
(§1) 8-14 week old male and female NOD-SCID Gamma (NSGTM) mice (bred in-house at the Netherlands Cancer Institute (NKI), Amsterdam, The Netherlands) were subcutaneously injected in the right flank with 1×10^6 BLM tumor cells. Tumors were measured three times per week with a caliper, and when tumors were 100 mm3 (after 7 days) the animals were randomized over the following treatment groups: • 1. […]
(§2) Tumor volumes were measured 3 times per week by an independent animal technician in a blinded fashion. Tumor volume was calculated as follows: […]. […]
On the technique in general: In xenograft studies the graft and the host belong to different species.

Experiment [2] deals with LCLC-103H NSCLC cell line-derived xenograft. Kind of experiment: LCLC-103H NSCLC xenograft model with MART-1-specific human T cells. In kind it is in vivo, mice. The settings on record: ADC 1 mg/kg weekly i.v. with control T cells; anti-PD1 5 mg/kg weekly i.p. with MART-1 T cells and control ADC. The protocol:
The anti-tumor activity of IgG1-AXL-107-vcMMAE in combination with anti-PD1 (pembrolizumab) was evaluated in the LCLC-103H NSCLC cell line-derived xenograft model in mice, which systemically received human T-cells that were engineered to express a specific T-cell receptor (TCR) against MART-1. Before inoculation of mice with LCLC-103H cells, the LCLC-103H cells were transduced with the antigen (MART-1) as well as the correct HLA haplotype (HLA-A2) in order for the MART-1-specific T cells to recognize the tumor cells.
as §1, with “50” for “100”, “16 days), mice” for “7 days) the animals”, “1. Control T cells+Control ADC (n=7) • 2. MART-1 T cells+Control ADC (n=7) • 3. MART-1 T cells+Control ADC+anti-PD1 (n=7) • 4. Control T cells+IgG1-AXL-107-vcMMAE (n=11) • 5. MART-1 T cells+IgG1-AXL-107-vcMMAE (n=11) • 6. MART-1 T cells+IgG1-AXL-107-vcMMAE+anti-PD1 (n=11)” for “1.”
as §2

With “IgG1-AXL-107-vcMMAE: anti-human AXL IgG1-kappa antibody conjugated, on an average of 4 cysteinyl, to MMAE via cleavable mc-val-cit-PABC linker”, the “anti-tumor activity / tumor growth” value with LXFA 677 is “strong anti-tumor activity”. For the same substance, the “anti-tumor effect (tumor size)” value was “induced tumor regression” in experiment [1] and “some tumor growth inhibition” in experiment [2].

Source of the values: patent publication US20220273809A1, “AXL ANTIBODY-DRUG CONJUGATES FOR USE IN TREATING CANCER” (GENMAB A/S, priority 2019, published 2022).
